# In PubChem BioAssay (NCI):
#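 All cell lines were grown in 96-well plates and treated with compound for 48 hours. The concentration for full growth arrest is given as TGI.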
# Experiments:
# Experiment in all cases: NCI-60 cell line screen, 48 h
# MDA-MB-231 breast = tested on: MDA-MB-231 breast
# SR leukemia = tested on: SR leukemia
# CAKI-1 renal = tested on: CAKI-1 renal
# IGROV1 ovarian = tested on: IGROV1 ovarian
# SW-620 colon = tested on: SW-620 colon
# EKVX NSCLC = tested on: EKVX NSCLC
# COLO 205 colon = tested on: COLO 205 colon
# OVCAR-3 ovarian = tested on: OVCAR-3 ovarian
# MDA-MB-435 = tested on: MDA-MB-435
# HL-60(TB) leukemia = tested on: HL-60(TB) leukemia
# BT-549 breast = tested on: BT-549 breast
# TK-10 renal = tested on: TK-10 renal
# NCI-H226 lung = tested on: NCI-H226 lung
# MDA-N = tested on: MDA-N
# SF-268 CNS = tested on: SF-268 CNS
# LOX IMVI melanoma = tested on: LOX IMVI melanoma
# HCC-2998 colon = tested on: HCC-2998 colon
SMILES,TGI (MDA-MB-231 breast) [µM],TGI (SR leukemia) [µM],TGI (CAKI-1 renal) [µM],TGI (IGROV1 ovarian) [µM],TGI (SW-620 colon) [µM],TGI (EKVX NSCLC) [µM],TGI (COLO 205 colon) [µM],TGI (OVCAR-3 ovarian) [µM],TGI (MDA-MB-435) [µM],TGI (HL-60(TB) leukemia) [µM],TGI (BT-549 breast) [µM],TGI (TK-10 renal) [µM],TGI (NCI-H226 lung) [µM],TGI (MDA-N) [µM],TGI (SF-268 CNS) [µM],TGI (LOX IMVI melanoma) [µM],TGI (HCC-2998 colon) [µM]
c1ccc(CN[C@]23C4C5CC6C7C5C2C7[C@@](NCc2ccccc2)(C64)N3Cc2ccccc2)cc1 (stereo partly drawn),> 100,> 100,> 100,> 100,> 100,> 100,> 100,> 100,> 100,> 100,> 100,> 100,> 100,> 100,> 100,> 100,
CCCCCc1nnc(NS(=O)(=O)c2ccc(NC(=O)OCC(C)C)cc2)s1,> 100,36.9,> 100,97.7,> 100,78.2,41.6,86.9,> 100,> 100,> 100,> 100,,> 100,> 100,> 100,
COc1ccc(/C=C2\CCS(=O)(=O)c3ccccc3C2=O)cc1OC,> 100,89.1,> 100,72.1,> 100,> 100,> 100,> 100,> 100,70,76.2,> 100,> 100,> 100,> 100,43.8,44.1
CCCCCCCC(CC(=O)NC(CO)C(=O)NC(CO)CC(C)C)OC(=O)CC(CCCCCCC)OC(=O)CC(CCCCCCC)OC1OC(C)C(O)C(OC2OC(C)C(O)C(O)C2OC(C)=O)C1O (stereo not drawn),21.5,4.93,28.3,23,22.2,27.9,5.47,25.6,13.8,10.4,25.1,26,39,16,21.2,,25.8
O=C(CCCCCC(=O)N1CC(CCl)c2ccc([N+](=O)[O-])cc21)N1CC(CCl)c2ccc([N+](=O)[O-])cc21 (stereo not drawn),> 100,88.8,> 100,> 100,> 100,> 100,> 100,> 100,> 100,> 100,> 100,> 100,> 100,> 100,> 100,> 100,> 100
Cc1ccc(-n2cc(-c3ccc(Cl)cc3)c3c(N/N=C4\SCC(=O)N4C)ncnc32)cc1,23.8,> 100,32.3,> 100,> 100,> 100,37.5,> 100,40,> 100,82,8.18,> 100,63.4,> 100,> 100,
Oc1ccc(Cl)cc1-c1cc(-c2ccccc2)nc(NCN2CCCCC2)n1,> 100,> 100,> 100,> 100,> 100,> 100,> 100,> 100,> 100,> 100,> 100,> 100,,> 100,> 100,> 100,> 100
COC(=O)/C=C\C(C#N)(C#N)N=Cc1ccccc1,30.9,3.36,7.31,25.9,5.54,27.3,2.97,4.97,5.22,6.42,10.8,5.54,21,15.1,11.4,5.72,35.1
CC(=O)c1ccccc1NCC(=O)Nn1cnc2ccc(S(=O)(=O)Nc3ccccc3C(C)=O)cc2c1=O,> 100,> 100,> 100,> 100,> 100,> 100,> 100,> 100,> 100,> 100,> 100,> 100,> 100,> 100,> 100,> 100,> 100
C(=N\Nc1ccc(-c2nc3ccccc3[nH]2)cc1)/c1c(-c2ccc(Cc3ccccc3)cc2)[nH]c2ccccc12,60.6,> 100,> 59.8,19,> 100,> 100,19.8,> 59.5,> 27.4,> 63.5,38,> 95.4,> 100,> 24.5,10,23,30.9
C=CCc1cc(-c2cc(CC=C)c(O)c(CN(CC)CC)c2)cc(CN(CC)CC)c1O,> 87.7,70.6,> 100,> 100,76.2,> 100,> 82.2,> 100,> 92.7,> 86.3,> 100,> 100,98.7,> 73.5,> 100,31.7,> 100
O=c1oc2ccc([N+](=O)[O-])cc2c(Nc2ccc3c(c2)Sc2ccccc2O3)c1[N+](=O)[O-],38.8,55.2,50.6,54.9,80.6,68.8,34.8,31,85,46.8,64.3,58.3,35.8,88.8,61.6,36.2,26.4
COc1ccc(NC(=O)CC(=O)n2nc(C)c(N=Nc3cccc(C)c3)c2C)cc1,> 100,> 100,> 100,,> 100,> 100,> 100,> 100,> 100,> 100,> 100,> 100,> 100,> 100,> 100,> 100,> 100
Cc1ccc(C(=O)N(Cc2ccccc2)Cc2ccccc2)cc1N=NN(C)C,78,> 100,> 100,> 100,> 100,> 100,44.7,43.1,54.8,61.9,45.6,> 100,56.2,> 100,> 100,15.6,96
CCOC(=O)c1sc2nc(SC)nc3c2c1NCN3c1ccc(F)c(F)c1,46.2,> 100,> 100,> 100,> 100,> 100,> 100,19.5,41.7,> 100,> 66.5,64.1,> 79.9,> 45.8,> 100,> 60.1,> 64
NNc1nncc2[nH]cnc12,> 100,> 100,> 100,> 100,> 100,> 100,> 100,> 100,> 100,> 100,> 100,> 100,> 100,> 100,> 100,,
CCCC(O)c1cn(C(NC(=O)c2ccccc2)P(=O)(OCC)OCC)nn1 (stereo not drawn),> 100,> 100,> 100,> 100,> 100,> 100,> 100,> 100,> 100,> 100,> 100,> 100,> 100,> 100,> 100,> 100,> 100
O=[N+]([O-])c1ccc(C(Nc2ccccc2)P(c2ccccc2)c2ccccc2)cc1 (stereo not drawn),> 100,> 100,> 100,> 100,> 100,> 100,> 100,,> 100,> 100,> 100,> 100,> 100,> 100,> 100,> 100,
COC(OC)C1OCC(n2cc(F)c(=O)[nH]c2=O)C1O (stereo not drawn),> 100,> 100,> 100,> 100,> 100,> 100,> 100,> 100,> 100,,> 100,> 100,> 100,> 100,> 100,> 100,> 100
CCCCCCNC(=O)CCC(NC(=O)c1ccc(N(C)Cc2cnc3nc(N)nc(N)c3n2)cc1)C(=O)NCCCCCC (stereo not drawn),> 100,> 100,> 100,97.2,> 100,> 100,> 100,> 100,> 100,,> 100,> 100,> 100,> 100,> 100,> 100,> 100
CCCCCc1cc2cc3c(c(O)c2c(=O)[nH]1)C1(CCC3)C(O)=c2c(=O)c3c(=O)cc(OC)c(=O)c=3c(=O)c2=C1O (stereo not drawn),4.28,4.27,2.8,3.48,3.04,2.83,0.564,2.21,3.13,1.24,3.33,,4.21,3.84,3.63,2.85,4.42
